# From patent US10159746B2, “Cyclodextrin complexation methods for formulating peptide proteasome inhibitors” (Onyx Therapeutics, Inc., priority 2012, dated 2018)
# How the values were obtained:
# Type in all cases: physicochemical
# [1] = Slurry-based complexation/solubilization of CFZ-API in SBECD with citric acid (Example 1); conditions: SBECD/WFI/citric acid slurry, 2-8° C., mixed a further 24 hours
# Description: In a 525 L stainless steel jacketed cooled tank controlled to 2° C.-8° C., a suspension of 2.0 kg carfilzomib-API (CFZ-API), 246 kg water for injection (WFI), and 100 kg sulfobutylether beta-cyclodextrin (SBECD) was prepared. Specifically, in the 525 L stainless steel jacketed cooled tank controlled to 2° C.-8° C., 100 kg SBECD was dissolved in 246 kg WFI. The Carfilzomib suspension was then prepared using 2.0 kg of CFZ-API. Mixing was performed using an impeller mixer to maintain suspension of the CFZ-API solids and dissolve the SBECD. In the same vessel, a probe style rotor-stator high shear mixer (homogenizer) was used as well as the low shear impeller. The high shear mixer was operated for approximately 1 hour yielding an even suspension and reduction of particle size for any larger primary particles or agglomerated API. After a suspension was achieved, 1.96 kg of citric acid was added as a 16% aqueous solution. The pH of the solution was then lowered inducing partial solubilization of the CFZ-API followed by and complexation due to the presence of SBECD. Mixing was continued for a further 24 hours with both the impeller and the high shear mixer and a dissolved concentration of CFZ-API of greater than 5.1 mg/mL was achieved. […]
# [2] = Chlorohydrin degradation product (CDP) formation in lyophilized carfilzomib/SBECD product by HPLC: pH, water and sodium chloride varied (Example 2)
# Description: A multivariate statistical design of experiments was conducted to assess factors controlling the level of chlorohydrin degradation product as a function of processing parameters and storage time over six months. The complexation was performed in the proportion and parameters given in Example 1, with the following modifications: (i) the complexation process was performed at 2 L batch size; (ii) the final pH of solution before vial filling was varied for purposes of the experiment from 3.0, to 4.0; (iii) sodium chloride was spiked into SBECD in some experiments to create a high sodium chloride condition; (iv) water content of the lyophilized final product in stoppered vials was produced at high and low sodium chloride conditions via early termination and stoppering of vials to create a higher residual water content condition.
# The solution of complexed carfilzomib for injection bulk solution pre-lyophilization included aqueous 5 mg/mL carfilzomib, 250 mg/mL Captisol® (SBECD) and 4.86 mg/mL citric acid, pH adjusted with aqueous sodium hydroxide. Compounding of the bulk solutions for lyophilization followed the procedure detailed in Example 1 with the following manipulations to create solutions with different specific attributes: • 1. pH was adjusted to 3.0 and 4.0 • 2. Sodium chloride was spiked into the Captisol® to create a “High Chloride” condition Captisol® manufactured by Cydex, a subsidiary of Ligand, has a standard product analysis range for sodium chloride from 0.05% to 0.2% (w/v). […] 400 g of this Captisol® was required per batch for the process to be performed at 2 L scale batches of complexation processing (in same proportions and general parameters per Example 1). To create the “high chloride” condition, 0.6 g of NaCl was added to 399.4 g of Captisol® which thus mimicked what a batch containing 0.2% chloride Captisol® would be comprised of.
# In order to generate two (2) moisture content conditions in the final lyophilized vials, two (2) sets of 61.8 mg/vial (of CFZ-API) samples were lyophilized. The first cycle generated the “dry” sample set of vials containing approximately 0.6% residual water per Example 1 lyophilization parameters. For the second sample set, lyophilization was terminated and vials stoppered earlier in the secondary drying phase to generate the “wet” condition vials, with residual moisture approximately 2.4% water per vial initially.
# The bulk solution of complexed carfilzomib was analyzed during manufacture by High Performance Liquid Chromatography (HPLC) to accurately quantify the concentration of dissolved and complexed carfilzomib drug substance. Subsequently, additional water was added to accurately dilute the bulk complexed solution. After this dilution step, HPLC was used again to ensure a target concentration of 5.0 mg/mL was achieved. Samples of the three (3) final bulk solutions were analyzed for potency and purity confirmation testing by HPLC. […] Karl Fischer Coulometry method was used for the water content determination in the lyophilized drug product.
# [3] = Compounding study: dissolved carfilzomib versus time in 25% (w/v) SBE-β-CD (Example 5); conditions: CFZ-API suspension in 25% (w/v) SBE-β-CD solution, aqueous with cosolvent or surfactant or cyclodextrin, thermodynamic from solid, read-out: solubilized concentration during compounding
# Description: SBE-β-CD was dissolved in WFI to achieve 25% (w/v) solution. A suspension of CFZ-API in the SBE-β-CD solution was prepared by homogenization per the solubility study
# API solids were added in all experiments to theoretically yield a ˜6 mg/mL final solution to mimic the commercial process
# After homogenization, pH was lowered using citric acids to affect solubilization, while continuing mixing up 24 hours. Then, all preparations were adjusted to pH 3.5. Dissolved concentration as a function of time was measured by sampling, filtration, then HPLC analysis to monitor the kinetics of complexation in the slurry based process.
smiles,measurement,setting,value
CC(C)C[C@H](NC(=O)[C@H](CCc1ccccc1)NC(=O)CN1CCOCC1)C(=O)N[C@@H](Cc1ccccc1)C(=O)N[C@@H](CC(C)C)C(=O)[C@@]1(C)CO1 [carfilzomib],dissolved concentration of CFZ-API,[1],greater than 5.1 mg/mL
same,% Area of CDP after 6 months (HPLC data),"[2]; 5° C., pH 3.00, water 0.7%, sodium chloride 0.05%",0.00 % Area
same,% Area of CDP after 6 months (HPLC data),"[2]; 5° C., pH 3.00, water 0.7%, sodium chloride 0.2%",0.13 % Area
same,% Area of CDP after 6 months (HPLC data),"[2]; 5° C., pH 3.00, water 2%, sodium chloride 0.05%",0.02 % Area
same,% Area of CDP after 6 months (HPLC data),"[2]; 5° C., pH 3.00, water 2%, sodium chloride 0.2%",0.28 % Area
same,% Area of CDP after 6 months (HPLC data),"[2]; 5° C., pH 4.00, water 0.7%, sodium chloride 0.05%",0.00 % Area
same,% Area of CDP after 6 months (HPLC data),"[2]; 5° C., pH 4.00, water 0.7%, sodium chloride 0.2%",0.08 % Area
same,% Area of CDP after 6 months (HPLC data),"[2]; 5° C., pH 4.00, water 2%, sodium chloride 0.05%",0.02 % Area
same,% Area of CDP after 6 months (HPLC data),"[2]; 5° C., pH 4.00, water 2%, sodium chloride 0.2%",0.18 % Area
same,% Area of CDP after 6 months (HPLC data),"[2]; 25° C., pH 3.00, water 0.7%, sodium chloride 0.05%",0.14 % Area
same,% Area of CDP after 6 months (HPLC data),"[2]; 25° C., pH 3.00, water 0.7%, sodium chloride 0.2%",0.70 % Area
same,% Area of CDP after 6 months (HPLC data),"[2]; 25° C., pH 3.00, water 2%, sodium chloride 0.05%",0.55 % Area
same,% Area of CDP after 6 months (HPLC data),"[2]; 25° C., pH 4.00, water 0.7%, sodium chloride 0.05%",0.09 % Area
same,% Area of CDP after 6 months (HPLC data),"[2]; 25° C., pH 4.00, water 0.7%, sodium chloride 0.2%",0.36 % Area
same,% Area of CDP after 6 months (HPLC data),"[2]; 25° C., pH 4.00, water 2%, sodium chloride 0.05%",0.35 % Area
same,solubility at 2 h,[3]; first 2 hours,4500 µg/mL
same,solubility,"[3]; slow equilibration phase, in >20 hours",5500 µg/mL
